Consider three compounds from patent US20240270762A1, “PENICILLIN-BINDING PROTEIN INHIBITORS” (priority 2021, published 2024).

≈ marks a conversion by molar mass, not a printed value.

Assay [1] addresses T1, A. baumannii PBP1a (Acinetobacter baumannii, UniProt A0ABX6CK30).
T1 sequence (A0ABX6CK30 1-851): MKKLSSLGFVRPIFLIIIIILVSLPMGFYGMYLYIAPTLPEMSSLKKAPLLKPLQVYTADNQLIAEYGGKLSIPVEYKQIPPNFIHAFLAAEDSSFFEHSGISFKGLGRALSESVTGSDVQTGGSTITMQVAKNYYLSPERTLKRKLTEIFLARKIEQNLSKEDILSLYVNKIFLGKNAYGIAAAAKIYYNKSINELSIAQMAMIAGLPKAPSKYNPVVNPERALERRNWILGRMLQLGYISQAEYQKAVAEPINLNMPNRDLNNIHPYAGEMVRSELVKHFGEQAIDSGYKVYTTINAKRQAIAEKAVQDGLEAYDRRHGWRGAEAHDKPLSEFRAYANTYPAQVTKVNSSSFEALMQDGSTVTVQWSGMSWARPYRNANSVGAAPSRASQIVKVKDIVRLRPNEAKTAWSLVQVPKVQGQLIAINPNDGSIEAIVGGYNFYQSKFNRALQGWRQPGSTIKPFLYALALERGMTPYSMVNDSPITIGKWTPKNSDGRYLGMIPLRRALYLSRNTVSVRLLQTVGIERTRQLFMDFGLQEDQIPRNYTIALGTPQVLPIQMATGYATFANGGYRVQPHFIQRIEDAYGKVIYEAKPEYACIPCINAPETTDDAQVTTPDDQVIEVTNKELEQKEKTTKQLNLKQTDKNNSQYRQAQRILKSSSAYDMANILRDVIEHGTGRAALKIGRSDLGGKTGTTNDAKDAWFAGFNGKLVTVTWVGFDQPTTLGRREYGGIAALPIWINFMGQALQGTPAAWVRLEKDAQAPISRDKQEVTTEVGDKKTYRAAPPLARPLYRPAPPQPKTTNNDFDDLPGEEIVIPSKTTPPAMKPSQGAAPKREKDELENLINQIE
The experiment in a line: Bocillin-FL competition binding via gel filtration, A. baumannii PBP1a. The settings on record: competition binding assay using Bocillin-FL via gel filtration; read-out: A. baumannii PBP1a Potency. The procedure, abridged:
(§1)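 Enzyme pre-incubated with increasing inhibitor concentrations, then Bocillin-FL added for 15 min further incubation. Bocillin-FL-bound PBP separated by gel filtration and fluorescence read. EC50 from fitting fraction PBP bound vs inhibitor concentration to a Hill-type equation (ymin, ymax, n).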
A general note: Size exclusion chromatography separates by hydrodynamic size, large species first.

The target in assay [2] is A. baumannii PBP2 (Acinetobacter baumannii, UniProt D0C8Z9). In words: Bocillin-FL competition binding via gel filtration, A. baumannii PBP2. The procedure, abridged:
as §1

Assay [3] deals with P. aeruginosa ATCC 27853. The experiment in a line: microbe, parasite or virus in culture. The note with it: Pseudomonas aeruginosa, ATCC27853, read-out: Minimum inhibitory concentration, P. aeruginosa ATCC 27853. The format is cell-based.
In assay [4] the test system is A. baumannii ATCC 17978. In words: microbe, parasite or virus in culture. The format is cell-based. The settings on record: Acinetobacter baumannii, ATCC17978, read-out: MIC, A. baumannii ATCC 17978.
The subject of assay [5] is A. baumannii ATCC 19606. The experiment in a line: microbe, parasite or virus in culture. Type of assay: cell-based. The settings on record: Acinetobacter baumannii, ATCC19606, read-out: MIC, A. baumannii ATCC 19606.
Assay [6] has as its system P. aeruginosa (ΔmexAB-oprM). In words: Broth microdilution MIC in iron-depleted CAMHB (IDM). The format is cell-based. The settings on record: Pseudomonas aeruginosa; iron-depleted CAMHB (IDM); […]; read-out: Minimum inhibitory concentration, P. aeruginosa ΔmexAB-oprM.
The test system of assay [7] is P. aeruginosa CDC-0054. In words: microbe, parasite or virus in culture. Type of assay: cell-based. The note with it: Pseudomonas aeruginosa, CDC0054, read-out: Minimum inhibitory concentration, P. aeruginosa CDC-0054.
The subject of assay [8] is A. baumannii 1258916. The experiment in a line: microbe, parasite or virus in culture. The format is cell-based, Acinetobacter baumannii. The note with it: Acinetobacter baumannii, 1258916, read-out: MIC, A. baumannii 1258916.
For assay [9], the system named is A. baumannii CDC-0036. In words: microbe, parasite or virus in culture. The note with it: Acinetobacter baumannii, CDC0036, read-out: MIC, A. baumannii CDC-0036. Type of assay: cell-based.
The test system of assay [10] is A. baumannii CDC-0045. In words: microbe, parasite or virus in culture. The format is cell-based. The note with it: Acinetobacter baumannii, CDC0045, read-out: MIC, A. baumannii CDC-0045.
Assay [11] deals with A. baumannii CDC-0083. In words: microbe, parasite or virus in culture. Type of assay: cell-based. The note with it: Acinetobacter baumannii, CDC0083, read-out: MIC, A. baumannii CDC-0083.
The subject of assay [12] is B. humptydooensis ATCC BAA-2767. In words: microbe, parasite or virus in culture. The format is cell-based. The note with it: Burkholderia humptydooensis, ATCCBAA2767, read-out: Minimum inhibitory concentration (MIC), B. humptydooensis ATCC BAA-2767.
The test system of assay [13] is P. aeruginosa CDC-0110. In words: microbe, parasite or virus in culture. The format is cell-based. The note with it: Pseudomonas aeruginosa, CDC0110, read-out: Minimum inhibitory concentration, P. aeruginosa CDC-0110.

A. baumannii PBP2, sequence (D0C8Z9 whole entry): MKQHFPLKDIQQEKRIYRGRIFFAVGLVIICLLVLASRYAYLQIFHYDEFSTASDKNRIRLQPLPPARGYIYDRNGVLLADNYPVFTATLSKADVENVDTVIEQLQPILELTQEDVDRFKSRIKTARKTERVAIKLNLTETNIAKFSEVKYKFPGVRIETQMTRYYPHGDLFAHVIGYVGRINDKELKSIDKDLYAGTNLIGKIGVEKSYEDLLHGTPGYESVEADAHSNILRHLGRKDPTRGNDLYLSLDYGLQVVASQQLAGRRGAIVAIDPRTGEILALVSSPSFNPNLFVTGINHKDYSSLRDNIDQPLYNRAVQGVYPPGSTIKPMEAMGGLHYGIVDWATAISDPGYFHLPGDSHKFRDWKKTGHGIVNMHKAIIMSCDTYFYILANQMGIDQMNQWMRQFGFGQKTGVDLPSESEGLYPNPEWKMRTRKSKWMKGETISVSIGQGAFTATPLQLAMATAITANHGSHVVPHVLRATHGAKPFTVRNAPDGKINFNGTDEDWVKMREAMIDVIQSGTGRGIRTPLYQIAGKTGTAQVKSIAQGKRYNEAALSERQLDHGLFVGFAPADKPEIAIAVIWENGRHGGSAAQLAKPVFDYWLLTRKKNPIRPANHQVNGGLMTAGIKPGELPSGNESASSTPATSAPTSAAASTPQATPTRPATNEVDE

As for `O=C(NCCCN1CCN(C(=O)N[C@@H](C(=O)N[C@H]2Cc3ccc(F)c(C(=O)O)c3OB2O)c2cc(F)c(O)c(O)c2Cl)C(=O)C1=O)c1c(F)cc(O)cc1F` (racemic) [Example 420], the EC50 in assay [1] and in assay [2] was 10 to 50 µM each time. Further, the MIC in assay [3] was 2 to 4 µg/mL (≈ 2.51 to 5.03 µM); in assay [4], less than 1 µg/mL; in assay [5], less than 1 µg/mL; in assay [6] it was less than 1 µg/mL; in assay [7], 2 to 4 µg/mL (≈ 2.51 to 5.03 µM); in [8], 2 to 4 µg/mL (≈ 2.51 to 5.03 µM). In addition, the MIC is 2 to 4 µg/mL (≈ 2.51 to 5.03 µM) in assay [9]; less than 1 µg/mL in assay [10]; greater than 128 µg/mL in assay [11]; 3 µg/mL (≈ 3.77 µM) in [12]; less than 1 µg/mL in assay [13].
In the case of `O=C(NCCCS(=O)(=O)N1CCN(C(=O)NC(C(=O)N[C@H]2Cc3ccc(F)c(C(=O)O)c3OB2O)c2cc(F)c(O)c(O)c2Cl)C1=O)Nc1cccc(O)c1` (stereo partly drawn) [Example 277, (3R)-3-(2-(2-chloro-5-fluoro-3,4-dihydroxyphenyl)-2-(3-((3-(3-(3-hydroxyphenyl)ureido)propyl)sulfonyl)-2-oxoimidazolidine-1-carboxamido)acetamido)-7-fluoro-2-hydroxy-3,4-dihydro-2H-benzo[e][1,2]oxaborinine-8-carboxylic acid], the EC50 in assay [1] and in [2] was less than 10 µM each time. Further, the MIC in assay [3] is 2 to 4 µg/mL (≈ 2.47 to 4.93 µM); in assay [4], less than 1 µg/mL; in assay [5], less than 1 µg/mL; in [6], less than 1 µg/mL; in [7], 2 to 4 µg/mL (≈ 2.47 to 4.93 µM); in [8] it was 2 to 4 µg/mL (≈ 2.47 to 4.93 µM). Also, the MIC in assay [9] was 2 to 4 µg/mL (≈ 2.47 to 4.93 µM); in [10] it was 2 to 4 µg/mL (≈ 2.47 to 4.93 µM); in assay [11] it was less than 1 µg/mL; in [12], greater than 128 µg/mL; in assay [13], 8 to 16 µg/mL (≈ 9.87 to 19.7 µM).
For `O=C(NCCS(=O)(=O)N1CCN(C(=O)NC(C(=O)N[C@H]2Cc3ccc(F)c(C(=O)O)c3OB2O)c2cc(F)c(O)c(O)c2Cl)C1=O)Nc1ccc(O)cc1` (stereo partly drawn) [Example 289, (3R)-3-(2-(2-chloro-5-fluoro-3,4-dihydroxyphenyl)-2-(3-((2-(3-(4-hydroxyphenyl)ureido)ethyl)sulfonyl)-2-oxoimidazolidine-1-carboxamido)acetamido)-7-fluoro-2-hydroxy-3,4-dihydro-2H-benzo[e][1,2]oxaborinine-8-carboxylic acid], the EC50 was less than 10 µM in assay [1] and 10 to 50 µM in [2]. Also, the MIC was 2 to 4 µg/mL (≈ 2.51 to 5.02 µM) in assay [3]; less than 1 µg/mL in [4]; less than 1 µg/mL in assay [5]; less than 1 µg/mL in [6]; 2 to 4 µg/mL (≈ 2.51 to 5.02 µM) in [7]; less than 1 µg/mL in assay [8]. Also, the MIC is 2 to 4 µg/mL (≈ 2.51 to 5.02 µM) in assay [9]; 2 to 4 µg/mL (≈ 2.51 to 5.02 µM) in [10]; less than 1 µg/mL in assay [11]; 2 to 4 µg/mL (≈ 2.51 to 5.02 µM) in [12]; 2 to 4 µg/mL (≈ 2.51 to 5.02 µM) in assay [13].
